Test [1] relates to normal Vero cell line. Put plainly: Sulphorhodamine B (SRB) assay on normal Vero cell line. Particulars: Chlorocebus sabaeus, 48 h. (In general: Sulforhodamine B stains cellular protein and so reports cell mass.)
Test [2] has as its system Ehrlich ascites carcinoma (EAC) solid tumors. In words: Weight of EAC solid tumors in mice. Type of test: in vivo, Swiss albino female mice. To be noted: day 21, extract 200 mg/kg PO, compounds 50 mg/kg PO, days 7-21, vs control EAC. The procedure:
Cells of EAC were purchased from Tumor Biology Department, National Cancer Institute, Cairo University. EAC is a murine spontaneous breast cancer that served as the original tumor from which an ascites variant was obtained. Ascetic fluid was aspired under aseptic conditions from the peritoneal cavity of tumor-bearing mice. The viability and contamination of EAC cells were tested using trypan blue dye exclusion technique. Trypan blue dye stains dead cells only. EAC cells with 90% viability or more were suspended in normal saline (2.5 × 10^6 cells/0.1 mL). The mice were inoculated intradermally with 0.l ml EAC suspension on the lower ventral side after shaving.
Swiss albino female mice obtained from the Egyptian Organization for Biological Products and Vaccines (Vacsera, Egypt), and weighing 25–30 g were used. The mice were kept in plastic cages with mesh floor and hardwood bedding at 25 °C temperature under normal light/dark cycle, with water and food provided ad libitum. Mice were left to acclimatize for 1 week before the experiments. They were randomly divided into nine groups (7 mice each). The first group served as the normal group and received saline. EAC cells were inoculated in all other groups. Group 2 was considered the EAC control. Group 3 received (200 mg/kg) of P. undulata extract PO three times weekly. […]

The test system of test [3] is breast cancer cell line (MCF-7). Put plainly: Sulphorhodamine B (SRB) antiproliferative assay on MCF-7. To be noted: Homo sapiens, MCF7, 48 h.
Method: The potential cytotoxic activities of the P. undulata extract and isolated compounds against breast cancer cell line (MCF-7) were evaluated using a Sulphorhodamine-B (SRB) assay.
The subject of test [4] is VEGF-B. In words: Serum VEGF-B by ELISA in EAC-bearing mice. Particulars: day 21, extract 200 mg/kg PO, compounds 50 mg/kg PO, days 7-21, vs control EAC. In kind it is in vivo, Swiss albino female mice. The procedure:
(§1) Swiss albino female mice obtained from the Egyptian Organization for Biological Products and Vaccines (Vacsera, Egypt), and weighing 25–30 g were used. The mice were kept in plastic cages with mesh floor and hardwood bedding at 25 °C temperature under normal light/dark cycle, with water and food provided ad libitum. Mice were left to acclimatize for 1 week before the experiments. They were randomly divided into nine groups (7 mice each). The first group served as the normal group and received saline. EAC cells were inoculated in all other groups. Group 2 was considered the EAC control. Group 3 received (200 mg/kg) of P. undulata extract PO three times weekly. Groups (4–9) received (50 mg/kg) of Xanthoxyline, Oleanolic acid, Stigmasterol, Salvigenin, Rhamnetin and Dihydroquercetin 4′-methyl ether, respectively, PO three times daily. All compounds were dissolved in saline.
(§2) The day of tumor inoculation was considered as day zero (0). Treatment of groups (3–9) started at the 7th day after tumor inoculation, and continued for 2 weeks until day 21. The in vivo study was in accordance with the Guide for the Care and Use of Laboratory animals. The study protocol was approved by the ethical committee of Faculty of Pharmacy, Suez Canal University (code of approval 20201907RA2)
On the 21st day of EAC cells inoculation, blood samples were collected under light ether anesthesia from the orbital sinus (retro-orbital plexus). The blood samples were left to clot for 20 min followed by separation of the serum by centrifugation at 4000 rpm for 15 min. Mice were sacrificed by cervical dislocation and tumor discs were separated, weighed and fixed in 10% neutral buffered formalin for immunohistochemical investigations.
Serum samples were stored at (−20 °C) and used for determination of the level of VEGF-B by ELISA kit (ab213897) (Abcam, Cambridge, UK) according to the manufacturer’s protocol.
For orientation: An ELISA detects its analyte on a solid surface through an enzyme-linked reagent.

Test [5] has as its system VEGFR-2. Put plainly: Immunohistochemistry of VEGFR-2 expression in EAC tumor tissue. In kind it is in vivo, Swiss albino female mice. Particulars: day 21, extract 200 mg/kg PO, compounds 50 mg/kg PO, vs control EAC. The procedure:
as §1
The day of tumor inoculation was considered as day zero (0). […]
(§3) For immunohistochemical examination, the tumor discs were fixed in 10% neutral buffered formalin overnight and then embedded in paraffin. When analyzed, all paraffin-embedded tissues were sectioned at 4-μm, deparaffinized in xylene, and hydrated through graded ethyl alcohol series in decreasing concentrations (100%, 90%, 80% and 70%). […] The expression of VEGFR-2 and CD34 were assessed and percentage of stained area was measured.

Test [6] has as its system CD34. In words: Immunohistochemistry of CD34 expression in EAC tumor tissue. Type of test: in vivo, Swiss albino female mice. Particulars: day 21, extract 200 mg/kg PO, compounds 50 mg/kg PO, vs control EAC. The procedure: as §1, §2
On the 21st day of EAC cells inoculation, blood samples were collected under light ether anesthesia from the orbital sinus (retro-orbital plexus). The blood samples were left to clot for 20 min followed by separation of the serum by centrifugation at 4000 rpm for 15 min. […]
as §3

Molecules are shown by their SMILES. Values after ≈ are worked out from the molar mass of the structure shown.

A word on the IC50: it is the concentration that inhibits the measured activity by half. Read a high IC50 as weaker potency in that assay. In test [1], `COc1cccc2c1C(=O)c1c(O)c3c(c(O)c1C2=O)C[C@@](O)(C(=O)CO)C[C@@H]3O[C@H]1C[C@H](N)[C@H](O)[C@H](C)O1` [Doxo, doxorubicin, reference compound] gave an IC50 of 24.9 ± 0.17 mg/L (≈ 45.8 µM).

`COc1ccc(C2Oc3cc(O)cc(O)c3C(=O)C2O)cc1O` (stereo not drawn) [Compound 6, dihydroquercetin 4′-methyl ether]: the tumor weight entry in test [2] was “least tumor weights”. Also, the IC50 in test [3] is 22.5 ± 0.06 mg/L (≈ 70.7 µM); in test [1] it was greater than 50 mg/L.

Take `COc1cc(O)c(C(C)=O)c(OC)c1` [Compound 1, 2-hydroxy-4,6-dimethoxyacetophenone]: the IC50 in test [3] worked out at 23.5 ± 0.09 mg/L (≈ 120 µM); in test [1] it was 46 ± 0.28 mg/L (≈ 234 µM). Moreover, in test [4], the “serum VEGF-B levels” value was “nearly normalize VEGF-B levels”.

Regarding `CC1(C)CC[C@]2(C(=O)O)CC[C@]3(C)C(=CC[C@@H]4[C@@]5(C)CC[C@H](O)C(C)(C)[C@@H]5CC[C@]43C)[C@@H]2C1` [Compound 3, Oleanolic acid], the concentration for half-maximal inhibition (IC50) is 30 ± 0.14 mg/L (≈ 65.7 µM) in test [3] and greater than 50 mg/L in test [1]. In test [5], the “VEGFR-2 expression (immunohistochemistry, stained area)” value is given as “significantly (p < 0.05) lowered VEGFR-2 expression”.

Take `COc1ccc(-c2cc(=O)c3c(O)c(OC)c(OC)cc3o2)cc1` [Compound 4, 5-hydroxy-4’,6,7-trimethoxyflavone]: the IC50 in test [3] was 18 ± 0.08 mg/L (≈ 54.8 µM); in test [1], greater than 50 mg/L. Also, the “CD34 expression (immunohistochemistry, stained area)” value (shortened to “CD34 expression”) in test [6] is on record as “poor expression of CD34”. Besides, the “serum VEGF-B levels” value in test [4] was “nearly normalize VEGF-B levels”.

In the case of `COc1cc(O)c2c(=O)c(O)c(-c3ccc(O)c(O)c3)oc2c1` [Compound 5, 5,3’,4’-trihydroxy-7 methoxyflavonol], the tumor weight result in test [2] was “least tumor weights”. The figures for the IC50 in test [3] and in test [1] were 18.5 ± 0.12 mg/L (≈ 58.5 µM) and greater than 50 mg/L, respectively. Also, the “VEGFR-2 expression (immunohistochemistry, stained area)” value in test [5] is on record as “lowest expression”. The “CD34 expression” value in test [6] is “least expression of CD34”. The “serum VEGF-B levels” value in test [4] is given as “nearly normalize VEGF-B levels”.

Turning to `CC[C@H](/C=C/[C@@H](C)[C@H]1CC[C@H]2[C@@H]3CC=C4C[C@@H](O)CC[C@]4(C)[C@H]3CC[C@]12C)C(C)C` [Compound 2, Stigmasterol], the IC50 was 47 ± 0.06 mg/L (≈ 114 µM) in test [3] and greater than 50 mg/L in test [1]. Besides, the “CD34 expression” value in test [6] is “poor expression of CD34”. In test [4], the “serum VEGF-B levels” value was “nearly normalize VEGF-B levels”.

Source of the values: PMC8398779, “VEGFR-Mediated Cytotoxic Activity of Pulicaria undulata Isolated Metabolites: A Biological Evaluation and In Silico Study” (Life, 2021).
